Test results published in US10952992B2, “Methods of treating intraocular pressure with activators of Tie-2” (Aerpio Pharmaceuticals, Inc., priority 2015, dated 2021).
“And” between values parts separate entries of the source, which are not always exact repeats. Equal entries are not always repeated. Structures can show the parent of a compound that is named as a salt.

Test: Example 2 iris, retina, choroid and cornea tissue concentrations
Format: in vivo, male New Zealand White rabbits
Details: for Choroid Conc. OS / Choroid Conc. OD: choroid homogenate; for Choroid Conc. OS / Choroid tissue Conc. OS / Cornea Conc. OS / Cornea tissue Conc. OS / Iris Conc. OS / Iris tissue Conc. OS: left eye; for Choroid Conc. OS / Choroid Conc. OD / Choroid tissue Conc. OS / Choroid tissue Conc. OD / Cornea Conc. OS / Cornea Conc. OD / Cornea tissue Conc. OS / Cornea tissue Conc. OD / Iris Conc. OS / Iris Conc. OD / Iris tissue Conc. OS / Iris tissue Conc. OD: individual animals; for Choroid Conc. OS / Choroid Conc. OD / Choroid tissue Conc. Avg. / Choroid tissue Conc. OS / Choroid tissue Conc. OD / Cornea Conc. OS / Cornea Conc. OD / Cornea tissue Conc. Avg. / Cornea tissue Conc. OS / Cornea tissue Conc. OD / Iris Conc. OS / Iris Conc. OD / Iris tissue Conc. Avg. / Iris tissue Conc. OS / Iris tissue Conc. OD: intravitreal 2.5 mg/eye (~1.55 mg/kg), Group 4; for Choroid Conc. OD / Choroid tissue Conc. OD / Cornea Conc. OD / Cornea tissue Conc. OD / Iris Conc. OD / Iris tissue Conc. OD: right eye; for Choroid tissue Conc. Avg. / Cornea tissue Conc. Avg. / Iris tissue Conc. Avg.: average; for Cornea Conc. OS / Cornea Conc. OD: cornea homogenate; for Iris Conc. OS / Iris Conc. OD: iris homogenate
Protocol: To measure the concentration of Compound 1 in plasma and ocular tissues following topical ocular, subcutaneous, and intravitreal administration, New Zealand White rabbits were administered Compound 1, and plasma and ocular samples were collected at pre-determined time points. Compound 1 formulations were prepared fresh on each day of dosing.
Ocular tissue samples from both eyes of each animal were collected and weights were recorded. Plasma and ocular tissue sample concentrations of Compound 1 were determined by LC-MS/MS.
Animals were anesthetized for ocular (topical) and intravitreal dosing following the 12IA7 IACUC protocol. Each rabbit received a bolus dose of test formulation either via topical ocular administration 3 times daily on Days 1 and 2 (at 0, 6, and 12 hours), and once on Day 3 (at 0 hours) into both eyes; via intravitreal administration into both eyes once on Day 1 (at 0 hours); or via subcutaneous administration 2 times daily on Days 1 and 2 (at 0 and 8 hours) and once daily on Day 3 (at 0 hours). Doses were given within an approximately 1 hour window each day where applicable.
On Day 1, for intravitreal administration, or on Day 3, for topical ocular and subcutaneous administration, at the appropriate ocular tissue collection time points, animals were euthanized and both eyes were enucleated immediately. Following enucleation, each eye was rinsed with phosphate-buffered saline. Ocular tissue samples from both eyes of each animal were collected at predetermined time points and weights were recorded. All the samples were frozen immediately on dry ice, and stored at −60° C. to −80° C. pending bioanalysis.
An LC-MS/MS method was developed for the determination of Compound 1 in rabbit aqueous tissues (plasma, aqueous and vitreous humor) and solid ocular tissue samples. A pre-study standard curve was analyzed to determine the specificity, range, and lower limit of quantitation of the method. Plasma and tissue homogenate study samples were extracted and analyzed. All the samples were treated identically to the standards.
One eight-point standard curve was used in each analytical batch. To be accepted, each batch must have had at least five of eight standards with accuracy within ±20% of nominal, except at the lower limit of quantification (LLOQ), where ±25% was acceptable.

COC(=O)N[C@@H](Cc1ccccc1)C(=O)N[C@@H](Cc1ccc(NS(=O)(=O)O)cc1)c1csc(-c2cccs2)n1 [Compound 1 sodium salt]
Choroid Conc. OS (24 hr): 9890 ng/mL and 10400 ng/mL
Choroid Conc. OD (24 hr): 11800 ng/mL and 18400 ng/mL
Choroid Conc. OS (48 hr): 3740 ng/mL and 2790 ng/mL
Choroid Conc. OD (48 hr): 3480 ng/mL and 4040 ng/mL
Choroid Conc. OS (72 hr): 282 ng/mL and 290 ng/mL
Choroid Conc. OD (72 hr): 107 ng/mL and 311 ng/mL
Choroid tissue Conc. Avg. (6.0 hr): 947375 ng/g
Choroid tissue Conc. OS (6.0 hr): 1155000 ng/g and 484000 ng/g
Choroid tissue Conc. OD (6.0 hr): 1804000 ng/g and 346500 ng/g
Choroid tissue Conc. Avg. (24 hr): 138848 ng/g
Choroid tissue Conc. OS (24 hr): 108790 ng/g and 114400 ng/g
Choroid tissue Conc. OD (24 hr): 129800 ng/g and 202400 ng/g
Choroid tissue Conc. Avg. (48 hr): 38638 ng/g
Choroid tissue Conc. OS (48 hr): 41140 ng/g and 30690 ng/g
Choroid tissue Conc. OD (48 hr): 38280 ng/g and 44440 ng/g
Choroid tissue Conc. Avg. (72 hr): 2723 ng/g
Choroid tissue Conc. OS (72 hr): 3102 ng/g and 3190 ng/g
Choroid tissue Conc. OD (72 hr): 1177 ng/g and 3421 ng/g
Cornea Conc. OS (6.0 hr): 6940 ng/mL and 6030 ng/mL
Cornea Conc. OD (6.0 hr): 6300 ng/mL and 6710 ng/mL
Cornea Conc. OS (24 hr): 1560 ng/mL and 1930 ng/mL
Cornea Conc. OD (24 hr): 2180 ng/mL and 2940 ng/mL
Cornea Conc. OS (48 hr): 662 ng/mL and 487 ng/mL
Cornea Conc. OD (48 hr): 1050 ng/mL and 538 ng/mL
Cornea Conc. OS (72 hr): 20.1 ng/mL and 58.1 ng/mL
Cornea Conc. OD (72 hr): 18.0 ng/mL and 56.9 ng/mL
Cornea tissue Conc. Avg. (6.0 hr): 71445 ng/g
Cornea tissue Conc. OS (6.0 hr): 76340 ng/g and 66330 ng/g
Cornea tissue Conc. OD (6.0 hr): 69300 ng/g and 73810 ng/g
Cornea tissue Conc. Avg. (24 hr): 23678 ng/g
Cornea tissue Conc. OS (24 hr): 17160 ng/g and 21230 ng/g
Cornea tissue Conc. OD (24 hr): 23980 ng/g and 32340 ng/g
Cornea tissue Conc. Avg. (48 hr): 7527 ng/g
Cornea tissue Conc. OS (48 hr): 7282 ng/g and 5357 ng/g
Cornea tissue Conc. OD (48 hr): 11550 ng/g and 5918 ng/g
Cornea tissue Conc. Avg. (72 hr): 421 ng/g
Cornea tissue Conc. OS (72 hr): 221 ng/g and 639 ng/g
Cornea tissue Conc. OD (72 hr): 198 ng/g and 626 ng/g
distribution among iris, retina, choroid, cornea (FIG. 15) (intravitreal 1.55 mg/kg, sodium salt): generally higher in the retina and choroid
Iris Conc. OS (6.0 hr): 34000 ng/mL and 30600 ng/mL
Iris Conc. OD (6.0 hr): 35500 ng/mL and 27800 ng/mL
Iris Conc. OS (24 hr): 7610 ng/mL and 25900 ng/mL
Iris Conc. OD (24 hr): 6890 ng/mL and 11000 ng/mL
Iris Conc. OS (48 hr): 1960 ng/mL and 2780 ng/mL
Iris Conc. OD (48 hr): 2380 ng/mL and 1820 ng/mL
Iris Conc. OS (72 hr): 225 ng/mL and 59.5 ng/mL
Iris Conc. OD (72 hr): 169 ng/mL and 110 ng/mL
Iris tissue Conc. Avg. (6.0 hr): 351725 ng/g
Iris tissue Conc. OS (6.0 hr): 374000 ng/g and 336600 ng/g
Iris tissue Conc. OD (6.0 hr): 390500 ng/g and 305800 ng/g
Iris tissue Conc. Avg. (24 hr): 141350 ng/g
Iris tissue Conc. OS (24 hr): 83710 ng/g and 284900 ng/g
Iris tissue Conc. OD (24 hr): 75790 ng/g and 121000 ng/g
Iris tissue Conc. Avg. (48 hr): 24585 ng/g
Iris tissue Conc. OS (48 hr): 21560 ng/g and 30580 ng/g
Iris tissue Conc. OD (48 hr): 26180 ng/g and 20020 ng/g
Iris tissue Conc. Avg. (72 hr): 1550 ng/g
Iris tissue Conc. OS (72 hr): 2475 ng/g and 655 ng/g
Iris tissue Conc. OD (72 hr): 1859 ng/g and 1210 ng/g
